Consider six compounds from patent US20240294521A1, “CRYSTALLINE FORMS, COMPOSITIONS CONTAINING SAME, AND METHODS OF THEIR USE” (Repare Therapeutics Inc., priority 2021, published 2024).

Structures are written as SMILES. ≈ marks a conversion by molar mass, not a printed value. Entries after “also recorded” stand apart in the source; their conditions may differ. Structures can show the parent of a compound that is named as a salt. Where two headings read alike, the source gives them in different places.

What all share (type): physicochemical
Data set [1] is described as follows: Form stability of crystalline hydrogen sulfate forms A and B in buffered 0.5% methylcellulose/0.02% sodium lauryl sulfate. Conditions: 10 mg in 10 mL MC/SLS with (pH 4.5) and without sodium citrate buffer, 500 rpm, room temperature, overnight.
A short description of data set [2]: Dynamic Vapor Sorption analysis (DVS), hygroscopicity. Conditions: for moisture uptake: 0-90% RH change by DVS; for Hygroscopicity by DVS: 25° C./0-90% RH change; for Hygroscopicity: weight increase at 80% RH, 25° C.; for form change by XRPD after DVS: after 0-90% RH. As to the method:
Dynamic Vapor Sorption Analysis (DVS)
• Instrument: DVS Intrinsic, Surface Measurement Systems • Parameters: 25° C., 0-90-0% RH for 2 cycles

A short description of data set [3]: Storage stability of the crystalline forms (25° C./60% RH, 40° C./75% RH). The conditions noted are these: for appearance after exposure / solid-form stability (XRPD): one-week exposure to 75% RH at 40° C.; for XRPD of the samples after exposure vs t=0: 25° C./60% RH and 40° C./75% RH, closed and open vial, 1, 2 and 4 weeks. As to the method:
Example 8. Storage Stability of the Crystalline Forms
The forms were evaluated with a closed vial and an open vial.
Crystalline Hydrogen Sulfate Form B. […] Approximately 30 mg of crystalline hydrogen sulfate form B was weighed into a 4 mL vial and covered with a KIMWIPE. […]
Crystalline Sulfate Form A. […] Approximately 30 mg of crystalline sulfate form A was weighed into a 4 mL vial and covered with a KIMWIPE. […]

A short description of data set [4]: Form stability of crystalline form F in 0.5% methylcellulose (400 cps)/0.02% sodium lauryl sulfate. Here is the method: The samples were evaluated at designated time points and PLM images were recorded up to 7 days.
Data set [5] in a line: Water solubility of free form solid states at room temperature. The conditions noted are these: for XRPD Pattern (solubility measured on); form in water: suspended in water, XRPD after 1 day, PLM after 5 days; for form after suspension in water (microscopic images): five days, room temperature. Here is the method:
Example 4. Water Solubility of Free Form Solid States at Room Temperature
The samples were shaken at 25° C., 200 rpm. XRPD (taken after the crystalline forms were mixed with water, and after 1 day suspended in water) and PLM (after 5 days) were recorded. […] Table 13 summarizes the water solubility of crystalline forms C and F.

Data set [6] can be described thus: Dynamic Vapor Sorption analysis (DVS), hygroscopicity. Conditions: 2-95% RH.
A short description of data set [7]: Form stability of crystalline hydrogen sulfate forms A and B in buffered 0.5% methylcellulose/0.02% sodium lauryl sulfate. Here is the method:
Example 7. Form Stability of Crystalline Hydrogen Sulfate Forms A and B in Buffered 0.5% Methylcellulose (v/v) (400 cps)/0.02% Sodium Lauryl Sulfate (v/v)
Crystalline hydrogen sulfate form A was used for form stability studies in 0.5% methylcellulose (v/v) (400 cps)/0.02% sodium lauryl sulfate (v/v) with citrate buffer (pH 4.5) with a concentration of 0.1 mg/mL, 0.2 mg/mL, 0.5 mg/mL and 1 mg/mL with and without stirring. HPLC purity was obtained for the solutions at 3 and 7 days.
An additional sample of crystalline hydrogen sulfate form A in the same buffered formulation was prepared with a concentration of 1 mg/ml and stirred at 500 rpm at room temperature. The sample was monitored every hour for form assessment. The solution was nearly clear at the first 3 hours.

Where [8] appears, read: 25° C./60% RH, t = 4 weeks, open vial.
Setting [9] is: 25° C./60% RH, t = 7 d, open vial.
Where [10] appears, read: 25° C./60% RH, t = 14 d, open vial.
[11] abbreviates: 40° C./75% RH, t = 4 weeks, closed vial.
[12] abbreviates: 40° C./75% RH, t = 4 weeks, open vial.
Setting [13] is: 40° C./75% RH, t = 7 d, open vial.
The mark [14] stands for this setting: 40° C./75% RH, t = 14 d, open vial.

As to `C[C@@H]1COCCN1c1cc([C@]2(O)C[C@H]3CC[C@@H](C2)O3)c2cnn(-c3cc[nH]n3)c2n1` [Crystalline hydrogen sulfate form B], the “resulting solid form (XRPD)” value in data set [1] is given as “convert to crystalline form C; also recorded: The resulting solids were determined to be the free form, crystalline form C as confirmed by XRPD (FIG. 38)”. In data set [2], the moisture uptake came out at 15.75%; the “Hygroscopicity by DVS” value is reported as “hygroscopic”; the Hygroscopicity entry is “Hygroscopic (e.g., ≥2% and <15% weight increase (Hygroscopic (e.g., ≥2% and <15% weight increase at 80% RH, 25° C.))”. For the same compound, in data set [3], the appearance after exposure entry is “remained a flowable, white powder” and the “solid-form stability (XRPD)” value is recorded as “no significant changes”.
Usually solubility stands for the dissolved amount per volume that the medium holds. For the compound `C[C@@H]1COCCN1c1cc([C@]2(O)C[C@H]3CC[C@@H](C2)O3)c2cnn(-c3cc[nH]n3)c2n1` [Crystalline form F], the “aqueous solubility (qualitative)” value in data set [4] is “very low”. In addition, the form change entry in data set [4] (0.5% methylcellulose (400 cps)/0.02% sodium lauryl sulfate, room temperature, 7 days, PLM and XRPD) was “No form change”. Also, the “Hygroscopicity by DVS” value in data set [2] is given as “non hygroscopic”. The “form change by XRPD after DVS” value in data set [2] is reported as “no form change”. Further, the Hygroscopicity entry in data set [2] was “Non hygroscopic (e.g., <0.2% weight increase at (Non hygroscopic (e.g., <0.2% weight increase at 80% RH, 25° C.))”. The “XRPD of the samples after exposure vs t=0” value in data set [3] was “matched with the starting materials”. Also, the DSC entry in data set [3] (setting [8]), in data set [3] (setting [9]), in data set [3] (setting [10]), in data set [3] (setting [11]), in data set [3] (setting [12]) and in data set [3] (setting [13]) was “No change” each time. Also, the DSC entry in data set [3] (setting [14]) is reported as “No change”. Moreover, the HPLC in data set [3] (setting [8]) came to 99.94%; in data set [3] (setting [9]), 99.925%; in data set [3] (setting [10]), 100%; in data set [3] (setting [11]), 99.94%; in data set [3] (setting [12]), 99.94%; in data set [3] (setting [13]), 99.922%. Also, the HPLC in data set [3] (setting [14]) turned out to be 100%; in data set [3] (t = 0), 99.903%. In addition, the “TG weight loss by 170° C.” value in data set [3] (setting [8]), in data set [3] (setting [9]), in data set [3] (setting [10]), in data set [3] (setting [11]), in data set [3] (setting [12]) and in data set [3] (setting [13]) was 4.2 wt % loss throughout. Besides, the figures for the “TG weight loss by 170° C.” value in data set [3] (setting [14]) and in data set [3] (t = 0) were 4.2 wt % loss and 4.7 wt % loss by, respectively. The XRPD result in data set [3] (setting [8]), in data set [3] (setting [9]), in data set [3] (setting [10]), in data set [3] (setting [11]), in data set [3] (setting [12]) and in data set [3] (setting [13]) was “No change” in each case. For the same compound, the XRPD entry in data set [3] (setting [14]) is “No change”. Further, the “XRPD Pattern (solubility measured on); form in water” value in data set [5] (25° C.) is “remained unchanged; also recorded: Crystalline form F”. In addition, the water solubility entry in data set [5] (water, 25° C.) is on record as “about 0.046 mg/mL”. In addition, the solubility in data set [5] (water, 25° C., label = starting material, measured on the form named in the XRPD Pattern column) was determined as 46 µg/mL (≈ 112 µM). For the same compound, the “form after suspension in water (microscopic images)” value in data set [5] (water) is “unchanged”.
On to `C[C@@H]1COCCN1c1cc([C@]2(O)C[C@H]3CC[C@@H](C2)O3)c2cnn(-c3cc[nH]n3)c2n1` [Crystalline form B], for which, in data set [2], the “Hygroscopicity by DVS” value is given as “slightly hygroscopic”; the “form change by XRPD after DVS” value is “did not change”; the Hygroscopicity result was “Slightly hygroscopic (e.g., ≥0.2% and <2% (Slightly hygroscopic (e.g., ≥0.2% and <2% weight increase at 80% RH, 25° C.))”. Also, the “XRPD Pattern (solubility measured on); form in water” value in data set [5] (25° C.) was “converted to crystalline form C”. Moreover, the solubility in data set [5] (water, 25 °C, water, thermodynamic from solid, water, 25° C., label = starting material, measured on the form named in the XRPD Pattern column, read-out: Solubility) is 50 µg/mL (≈ 122 µM). For the same compound, the “form after suspension in water (microscopic images)” value in data set [5] (water) is “converted to crystalline form C”.
Take `C[C@@H]1COCCN1c1cc([C@]2(O)C[C@H]3CC[C@@H](C2)O3)c2cnn(-c3cc[nH]n3)c2n1` [Crystalline form C]: in data set [2], the “Hygroscopicity by DVS” value is recorded as “slightly hygroscopic”; the “form change by XRPD after DVS” value is “XRPD pattern changed after DVS compared to the starting material and matched with crystalline form J”; the Hygroscopicity entry was “Slightly hygroscopic (e.g., ≥0.2% and <2% weight (Slightly hygroscopic (e.g., ≥0.2% and <2% weight increase at 80% RH, 25° C.))”. For the same compound, the solubility in data set [5] (water, 25 °C, water, thermodynamic from solid, water, 25° C., read-out: water solubility) was about 50 µg/mL (≈ 122 µM).
Take `C[C@@H]1COCCN1c1cc([C@]2(O)C[C@H]3CC[C@@H](C2)O3)c2cnn(-c3cc[nH]n3)c2n1` [Crystalline sulfate form A]: in data set [6], the Hygroscopicity result is “Hygroscopic” and the weight increase was found to be 2.8%. In addition, in data set [3], the appearance after exposure entry was “remained a flowable, white powder” and the “solid-form stability (XRPD)” value is on record as “changed to a mixture of crystalline sulfate form A+another crystalline form of a sulfate salt”.
In the case of `C[C@@H]1COCCN1c1cc([C@]2(O)C[C@H]3CC[C@@H](C2)O3)c2cnn(-c3cc[nH]n3)c2n1` [Crystalline hydrogen sulfate form A], the “HPLC purity of solution” value in data set [7] (0.1 mg/mL, stir, Day 3, MC/SLS with 50 mM citrate buffer (pH 4.5)) came out at 99.82%; in data set [7] (0.1 mg/mL, stir, Day 7, MC/SLS with 50 mM citrate buffer (pH 4.5)), 99.93%; in data set [7] (0.1 mg/mL, w/o stir, Day 3, MC/SLS with 50 mM citrate buffer (pH 4.5)), 99.82%; in data set [7] (0.2 mg/mL, stir, Day 3, MC/SLS with 50 mM citrate buffer (pH 4.5)), 99.89%; in data set [7] (0.2 mg/mL, stir, Day 7, MC/SLS with 50 mM citrate buffer (pH 4.5)), 99.86%; in data set [7] (0.2 mg/mL, w/o stir, Day 3, MC/SLS with 50 mM citrate buffer (pH 4.5)), 99.89%. Also, the “HPLC purity of solution” value in data set [7] (0.5 mg/mL, stir, Day 3, MC/SLS with 50 mM citrate buffer (pH 4.5)) worked out at 99.91%; in data set [7] (0.5 mg/mL, stir, Day 7, MC/SLS with 50 mM citrate buffer (pH 4.5)), 99.87%; in data set [7] (0.5 mg/mL, w/o stir, Day 3, MC/SLS with 50 mM citrate buffer (pH 4.5)), 99.91%; in data set [7] (1 mg/mL, stir, Day 3, MC/SLS with 50 mM citrate buffer (pH 4.5)), 99.93%; in data set [7] (1 mg/mL, stir, Day 7, MC/SLS with 50 mM citrate buffer (pH 4.5)) it was 99.94%; in data set [7] (1 mg/mL, w/o stir, Day 3, MC/SLS with 50 mM citrate buffer (pH 4.5)), 99.89%. Moreover, the “form assessment (precipitate, XRPD)” value in data set [7] (1 mg/ml in buffered MC/SLS, stirred at 500 rpm, room temperature, monitored every hour) is “After 4 hours, crystalline form C was observed; also recorded: Precipitation of the free form, crystalline form C was observed after 3 hours”. Also, the “purity of the solutions (HPLC)” value in data set [7] (0.1-1 mg/mL, with and without stirring, 3 and 7 days, citrate buffer pH 4.5) was 99.8-99.9%. The compound also displayed a moisture uptake in data set [2] of 1.42%. In addition, the “Hygroscopicity by DVS” value in data set [2] was “slightly hygroscopic”. In addition, the “form change by XRPD after DVS” value in data set [2] is “No form change”. For the same compound, the Hygroscopicity entry in data set [2] is “Slightly hygroscopic (e.g., ≥0.2% and <2% weight (Slightly hygroscopic (e.g., ≥0.2% and <2% weight increase at 80% RH, 25° C.))”. In data set [3], the “XRPD of the samples after exposure vs t=0” value is on record as “matched with the starting materials”. For the same compound, the HPLC in data set [3] (25° C./60% RH, t = 4 weeks, closed vial) amounted to 99.92%; in data set [3] (setting [8]), 99.91%; in data set [3] (25° C./60% RH, t = 7 d, closed vial) it was 99.936%; in data set [3] (setting [9]), 99.937%; in data set [3] (25° C./60% RH, t = 14 d, closed vial), 100%; in data set [3] (setting [10]), 99.944%. The HPLC in data set [3] (setting [11]) is on record as 99.92%; in data set [3] (setting [12]), 99.91%; in data set [3] (40° C./75% RH, t = 7 d, closed vial), 99.938%; in data set [3] (setting [13]), 99.938%; in data set [3] (40° C./75% RH, t = 14 d, closed vial), 100%; in data set [3] (setting [14]), 100%. This compound displayed an HPLC in data set [3] (t = 0, baseline before storage) of 99.902%.
